Measured values published in patent US20240246964A1 (Arbutus Biopharma Corporation, priority 2021, published 2024).

Molecular target: human PD-L1 (Homo sapiens (Human), UniProt Q9NZQ7)
Test: T cell activation luciferase reporter cell culture system (T Cell Activation Assay)
Assay type: cell-based
Details: luciferase reporter assay; PD-L1 aAPC/CHO-K1 cells with PD-1 effector Jurkat T cells

human PD-L1, sequence (Q9NZQ7 19-290): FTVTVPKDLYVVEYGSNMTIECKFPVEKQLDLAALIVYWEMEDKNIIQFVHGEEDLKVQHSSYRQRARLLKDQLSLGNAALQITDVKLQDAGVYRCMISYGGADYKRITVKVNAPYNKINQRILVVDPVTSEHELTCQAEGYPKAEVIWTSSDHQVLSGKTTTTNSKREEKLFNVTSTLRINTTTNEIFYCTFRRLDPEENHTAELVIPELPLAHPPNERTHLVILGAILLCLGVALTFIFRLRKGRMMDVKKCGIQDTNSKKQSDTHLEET

| Structure (SMILES) | EC50 [nM] |
| --- | --- |
| COc1cc(-c2nccc(-c3cccc(-c4ccc(CNC5CC6(COC6)C5)c(OC)n4)c3C(F)(F)F)c2Cl)ccc1CNC1CC2(COC2)C1 (stereo not shown) [Example 604, N-((6-(3-(2-(4-(((2-Oxaspiro[3.3]heptan-6-yl)amino)methyl)-3-methoxyphenyl)-3-chloropyridin-4-yl)-2-(trifluoromethyl)phenyl)-2-methoxypyridin-3-yl)methyl)-2-oxaspiro[3.3]heptan-6-amine] | ≥ 10000 |
| COc1cc(-c2nccc(-c3cccc(-c4ccc(CNC5CCN(C(C)=O)CC5)c(OC)n4)c3Cl)c2Cl)ccc1CNC1CC2(COC2)C1 [Example 379, 1-(4-(((6-(3-(2-(4-(((2-Oxaspiro[3.3]heptan-6-yl)amino)methyl)-3-methoxyphenyl)-3-chloropyridin-4-yl)-2-chlorophenyl)-2-methoxypyridin-3-yl)methyl)amino)piperidin-1-yl)ethan-1-one] | 45.3 |
| COc1cc(-c2nccc(-c3cccc(NC(=O)c4ccc(CN5CC6(COC6)C5)cn4)c3Cl)c2Cl)ccc1CN1CC2(COC2)C1 [Example 701, 5-((2-Oxa-6-azaspiro[3.3]heptan-6-yl)methyl)-N-(3-(2-(4-((2-oxa-6-azaspiro[3.3]heptan-6-yl)methyl)-3-methoxyphenyl)-3-chloropyridin-4-yl)-2-chlorophenyl)picolinamide] | 410 |
| COc1cc(-c2nccc(-c3cccc(-c4cc(Cl)c(CNC[C@@H]5CCC(=O)N5)c(OC)n4)c3Cl)c2Cl)ccc1CNCC(=O)O [Cmpd 105, (S)-(4-(3-chloro-4-(2-chloro-3-(4-chloro-6-methoxy-5-((((5-oxopyrrolidin-2-yl)methyl)amino)methyl)pyridin-2-yl)phenyl)pyridin-2-yl)-2-methoxybenzyl)glycine] | 191 |
| COc1nc(-c2ccnc(-c3cccc4c3CCC[C@@H]4Nc3nc(OC)c(CNC4(C(=O)O)CC4)cc3C(F)(F)F)c2Cl)ccc1CNC[C@@H]1CCC(=O)N1 [Example 704] | ≥ 10000 |
| COc1cc(-c2nccc(-c3cccc(-c4ccc(CN5CC6(CNC(=O)C6)C5)c(OC)n4)c3C)c2Cl)ccc1CN1CC2(CNC(=O)C2)C1 [Example 408, 2-((6-(3-(3-chloro-2-(3-methoxy-4-((7-oxo-2,6-diazaspiro[3.4]octan-2-yl)methyl)phenyl)pyridin-4-yl)-2-methylphenyl)-2-methoxypyridin-3-yl)methyl)-2,6-diazaspiro[3.4]octan-7-one] | 39.4 |
| COc1cc(-c2nccc(-c3cccc(-c4ccc(CNCCO)c(OC)n4)c3Cl)c2Cl)cc2c1CN(CCC1CCNCC1)CC2 [Cmpd 85, 2-(((6-(2-chloro-3-(3-chloro-2-(8-methoxy-2-(2-(piperidin-4-yl)ethyl)-1,2,3,4-tetrahydroisoquinolin-6-yl)pyridin-4-yl)phenyl)-2-methoxypyridin-3-yl)methyl)amino)ethan-1-ol] | 142 |

Other lines, results leading:

| EC50 [nM] | Structure (SMILES) |
| --- | --- |
| 43.1 | COc1cc(-c2ncnc(-c3cccc(-c4ccc(CNCCO)c(OC)n4)c3Cl)c2Cl)ccc1CNCCO [Example 581, 2-(((6-(2-chloro-3-(5-chloro-6-(4-(((2-hydroxyethyl)amino)methyl)-3-methoxyphenyl)pyrimidin-4-yl)phenyl)-2-methoxypyridin-3-yl)methyl)amino)ethan-1-ol] |
| 49.4 | COc1cc(-c2nccc(-c3cccc(-c4ccc(CNC[C@@H]5CCC(=O)N5)c(OC)n4)c3Cl)c2Cl)ccc1CNCCO [Cmpd 70, (S)-5-((((6-(2-chloro-3-(3-chloro-2-(4-(((2-hydroxyethyl)amino)methyl)-3-methoxyphenyl)pyridin-4-yl)phenyl)-2-methoxypyridin-3-yl)methyl)amino)methyl)pyrrolidin-2-one] |
| 70 | COc1nc(-c2cccc(-c3ccnc(-c4cc(OC)c5nc(CN[C@H]6CC[C@H](O)CC6)cn5c4)c3Cl)c2Cl)ccc1CNC[C@@H]1CCC(=O)N1 [Example 384, (S)-5-((((6-(2-Chloro-3-(3-chloro-2-(2-((((1r,4r)-4-hydroxycyclohexyl)amino)methyl)-8-methoxyimidazo[1,2-a]pyridin-6-yl)pyridin-4-yl)phenyl)-2-methoxypyridin-3-yl)methyl)amino)methyl)pyrrolidin-2-one] |
